Laboratory results taken from patent US20230310352A1, “NOVEL COMPOSITIONS AND METHODS FOR THE TREATMENT OF LUNG FIBROSIS” (LAURENT PHARMACEUTICALS INC., priority 2020, published 2023).

What was measured:
[1] = tested on: bleomycin-induced lung fibrosis; assay: Intratracheal bleomycin mouse model of pulmonary fibrosis (28-day model); type: in vivo, C57BL/6N mice; conditions: Day 28; oral once daily Day 7 to Day 28; fenretinide 10 mg/kg (as LAU-7b SDI), pirfenidone 100 mg/kg
Description: Oral administration of a solid, amorphous dispersion formulation of fenretinide (LAU-7b SDI) was provided as a treatment for reduction of pulmonary fibrosis, in a mouse model of lung fibrosis induced via a single intratracheal administration of bleomycin, for 21 days. The LAU-7b SDI formulation was obtained by spray drying and contains fenretinide in amorphous form in a solid dispersion comprising a matrix polymer, based on the following formula: 40% fenretinide, 59.6% povidone (KOLLIDON® 30), 0.24% butylated hydroxyanisole (BHA) and 0.16% butylated hydroxytoluene (BHT).
Male C57BL/6N mice from Charles River Laboratories, 10-12 weeks of age, weighing around 20-25 g, at the time of their enrolment, received 50 μL of bleomycin sulfate (2.0 mg/kg) by a single intratracheal instillation on Day 1 of the study to induce lung fibrosis. The sham group received an equivalent volume of 0.9% saline. On Day 7 postbleomycin instillation, the animals were randomized in groups of animals based on their body weight loss and enhanced pause airway resistance estimate (PenH value), while the sham group had 6 mice. Oral dosing by gavage (10 mL/kg) with the vehicle (sham and BLM control groups), the test articles (fenretinide 10 mg/kg), and the reference compound (pirfenidone 100 mg/kg) were administered once daily starting from Day 7 to Day 28. Two hours following the last dose on Day 28, all mice were sacrificed, the lungs of each mouse harvested, flushed with 0.9% NaCl and inflated with 10% neutral buffered formalin solution. After embedding and mounting of the lung tissue (transversal slices of 5 μm thickness), the histology slides were stained with hematoxylin/eosin for the Ashcroft score evaluation by a treatment-blinded pathologist and with Sirius red staining for automated fibrosis quantification (Biocelvia, France).
The key endpoints evaluated in this study were Ashcroft score, pulmonary foci and collagen content obtained by histological assessment of the lung tissue at the end of the study. Statistical analysis was made on normally distributed data by one-way ANOVA followed by multiple comparisons (Fisher's LSD post hoc test) to assess the difference between the groups, using Graph Pad Prism Software version 8.0 (San Diego, CA, USA). Differences were considered statistically significant when P values were p<0.05 (*), or p<0.01 (**) or p<0.001 (***).
Ashcroft scale for the evaluation of bleomycin-induced lung fibrosis is the analysis of stained histological samples by visual assessment. The Ashcroft score was assessed in lung tissue collected on Day 28 by treatment-blinded pathologist on H&E stained lung tissue histology slides (3 cross sections/animal) and using the modified Ashcroft scale. Briefly, each lung section was scanned at a magnification of x100 (H&E staining), read by a blinded examiner, and graded from 0 (normal lung) to 8 (total fibrotic obliteration of the field). Criteria for grading lung fibrosis in Ashcroft scale are as follows: Grade 0=normal lung; Grade 1=minimal fibrous thickening of alveolar or bronchiolar walls; Grade 3=moderate thickening of walls without obvious damage to lung architecture; Grade 5=increased fibrosis with definitive damage to lung structure and formation of fibrous bands or small fibrous masses; Grade 7=severe distortion of structure and large fibrous area; Grade 8=total fibrous obliteration of lung fields. The mean value of the grades obtained for each of the three sections was used as the Ashcroft score. Ashcroft score, using the modified scale, is a reliable and reproducible method of visual quantification of bleomycin induced lung fibrosis in H&E stained histological lung sections based on description of the general morphology of alveolar septa and lung structure. […]

[2] = tested on: bleomycin-induced lung fibrosis; assay: Intratracheal bleomycin mouse model of pulmonary fibrosis (21-day model); type: in vivo, C57BL/6N mice; conditions: Day 21; oral once daily for 14 days; fenretinide 10 mg/kg (as LAU-7b SDI), pirfenidone 100 mg/kg
Experimental: Oral administration of a solid amorphous dispersion formulation of fenretinide (LAU-7b SDI) was evaluated in treating and/or reducing pulmonary fibrosis in mouse model of lung fibrosis induced via a single intratracheal administration of bleomycin followed by vehicle, fenretinide (LAU-7b SDI) or pirfenidone oral treatment for 21 days. The LAU-7b SDI formulation was obtained by spray drying and contains fenretinide in amorphous form in a solid dispersion comprising a matrix polymer, based on the following formula: 40% fenretinide, 59.6% povidone (KOLLIDON® 30), 0.24% butylated hydroxyanisole (BHA) and 0.16% butylated hydroxytoluene (BHT).
Male C57BL/6N mice from Charles River Laboratories, 10-12 weeks of age, weighing around 20-25 g, at the time of their enrolment, received 50 μL of bleomycin sulfate (2.0 mg/kg) by a single intratracheal instillation on Day 1 of the study. The Sham group received an equivalent volume of 0.9% saline. On Day 7 post-bleomycin instillation the animals were randomized in groups of 8 animals based on their body weight loss and Penh value. Oral dosing by gavage (10 mL/kg) with the vehicle (sham and BLM Control groups), LAU-7b SDI (fenretinide at 5 mg/kg and 10 mg/kg dose), and the reference compound (pirfenidone 100 mg/kg) were initiated once daily starting from Day 7 to Day 21. Two hours following the last dose on Day 21 all the mice were sacrificed, the lungs of each mouse were harvested, flushed with 0.9% NaCl and inflated with 10% neutral buffered formalin solution. After embedding and mounting of the lung tissue (transversal slices of 5 μm thickness), the histology slides were stained with hematoxylin/eosin for the Ashcroft score evaluation by a treatment-blinded pathologist, and with Sirius red staining for automated fibrosis quantification (Biocellvia, France).
As in Example 4, the key endpoints evaluated in this study were the Ashcroft score, pulmonary foci and collagen content obtained by histological assessment of the lung tissue at the end of the study. Statistical analysis was made on normally distributed data by one-way ANOVA followed by multiple comparisons (Fisher's LSD post hoc test) to assess the difference between the groups, using Graph Pad Prism Software version 8.0 (San Diego, CA, USA). Differences were considered statistically significant when P values were p<0.05 (*), or p<0.01 (**) or p<0.001 (***). The Ashcroft score was assessed in the lung tissue by treatment-blinded pathologist on the H&E stained histology slides (2 cross sections/animal) and using the modified Ashcroft scale. Briefly, each lung section was scanned at a magnification of ×100 (H&E staining), and graded from 0 (normal lung) to 8 (total fibrotic obliteration of the field). The mean value of the grades obtained for each of the two sections was used as the Ashcroft score.
Pulmonary foci (fibrotic tissue) and lung collagen content were quantified in the Sirius red stained lung tissue histology sections by high resolution, automated digital image analysis (Biocellvia, France) on Day 21 after lung fibrosis induction by bleomycin (BLM) instillation and following a 14-day oral gavage treatment with LAU-7b SDI (fenretinide, two doses), pirfenidone (reference drug) or vehicle only. Full field analysis of 2 lung sections per animal was conducted and the results were expressed as a mean percentage of total surface. This test is considered highly reliable, offering reproducible and observer-independent assessment of quantitative analysis of fibrosis.

SMILES: Cc1ccc(=O)n(-c2ccccc2)c1 [pirfenidone]
- Ashcroft score vs BLM control [1]: did not induce significant improvement
- percentage of collagen content in lung tissue, automated Sirius red analysis, vs BLM control [1]: significantly reduced
- percentage of pulmonary foci (fibrotic tissue), automated Sirius red analysis, vs BLM control [1]: nonsignificant effect
- Ashcroft score vs BLM control [2]: reduced significantly
- percentage of collagen content, automated Sirius red analysis, vs BLM control [2]: did not induce statistically significant reduction
- percentage of pulmonary foci, automated Sirius red analysis, vs BLM control [2]: did not induce statistically significant reduction
